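These data come from cells grown in 96-well plates and exposed to compound for 48 hours at five concentrations. GI50 marks 50% less growth.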 Active and inactive are the calls of the source. No stated cut-off is given here; in the data, active = GI50 up to about 1.1 µM and inactive = higher.
Legend:
Experiment in all cases: DTP human tumour cell line panel, 48 h
U-251 = system: U-251
T47D = system: T47D
UO-31 = system: UO-31
SK-MEL-28 = system: SK-MEL-28
SF-268 = system: SF-268
RPMI-8226 = system: RPMI-8226
MCF7 = system: MCF7
HOP-62 = system: HOP-62
PC-3 = system: PC-3
HT-29 = system: HT-29
OVCAR-5 = system: OVCAR-5
CCRF-CEM = system: CCRF-CEM
Malme-3M = system: Malme-3M
SW-620 = system: SW-620
SN12C = system: SN12C
NCI-H460 = system: NCI-H460
HL-60 = system: HL-60
DU-145 = system: DU-145
IGROV-1 = system: IGROV-1
HOP-92 = system: HOP-92

Measured: GI50

Cc1cccc(N/C(=C(/C(Cl)=C(Cl)Cl)[N+](=O)[O-])n2nnc3ccccc32)c1
inactive: U-251 14 µM | T47D 22.1 µM | UO-31 16.5 µM | SK-MEL-28 14.9 µM | SF-268 15.9 µM | RPMI-8226 13.7 µM | MCF7 21.6 µM | HOP-62 18 µM | PC-3 16.6 µM | HT-29 17.3 µM | OVCAR-5 16.6 µM | CCRF-CEM 2.96 µM | Malme-3M 14.9 µM | SW-620 15.8 µM | SN12C 15.5 µM | NCI-H460 20.7 µM

COC(=O)c1nsc(OC)c1Cl
inactive: U-251 > 100 µM | HL-60 > 100 µM | UO-31 > 100 µM | SK-MEL-28 > 100 µM | SF-268 > 100 µM | RPMI-8226 > 100 µM | MCF7 > 100 µM | HOP-62 > 100 µM | DU-145 > 100 µM | PC-3 > 100 µM | HT-29 > 100 µM | OVCAR-5 > 100 µM | IGROV-1 > 100 µM | CCRF-CEM > 100 µM | Malme-3M > 100 µM | SW-620 > 100 µM | SN12C > 100 µM

CN1CCN(CCCN2c3ccccc3Sc3ccc(C(F)(F)F)cc32)CC1
inactive: U-251 8.34 µM | T47D 10 µM | HL-60 6.14 µM | UO-31 5.21 µM | SK-MEL-28 1.82 µM | SF-268 12.4 µM | HOP-62 13.1 µM | DU-145 16.4 µM | PC-3 4.72 µM | HT-29 2.44 µM | OVCAR-5 10.1 µM | Malme-3M 2.69 µM | SN12C 12.2 µM | NCI-H460 3.86 µM

COC(=O)[C@@]1(O)CC(C)C=C1C=O (some centres not stated)
inactive: U-251 18.2 µM | HL-60 22.1 µM | UO-31 > 100 µM | SK-MEL-28 > 100 µM | SF-268 43.2 µM | RPMI-8226 > 100 µM | HOP-62 > 100 µM | HT-29 39.4 µM | HOP-92 > 100 µM | OVCAR-5 > 100 µM | IGROV-1 > 100 µM | CCRF-CEM 25.3 µM | Malme-3M > 100 µM | SW-620 40.1 µM | SN12C > 100 µM | NCI-H460 20.6 µM

O=S(=O)(c1ccccc1)n1c2cc3cccnc3nc2c2cccnc21
inactive: U-251 40.5 µM | HL-60 17.9 µM | UO-31 > 100 µM | SK-MEL-28 > 100 µM | SF-268 56.8 µM | RPMI-8226 18.5 µM | MCF7 46 µM | HOP-62 60 µM | PC-3 97.9 µM | HT-29 60.4 µM | HOP-92 21.1 µM | OVCAR-5 > 100 µM | IGROV-1 79.1 µM | CCRF-CEM 22.4 µM | Malme-3M > 100 µM | SW-620 44.7 µM | SN12C 81.3 µM | NCI-H460 36.9 µM

COc1ccc(C(=O)OC2C=COC(C)C2OC(=O)c2ccc(OC)cc2)cc1 (configuration not stated)
inactive: U-251 36.8 µM | HL-60 10.6 µM | UO-31 45.4 µM | SK-MEL-28 16.4 µM | SF-268 15.8 µM | RPMI-8226 8.22 µM | HOP-62 > 83.6 µM | HT-29 22.2 µM | HOP-92 17.5 µM | OVCAR-5 77.1 µM | IGROV-1 37 µM | CCRF-CEM 7 µM | Malme-3M 18.2 µM | SW-620 15.6 µM | SN12C 23.3 µM | NCI-H460 40.7 µM

CCCCCCCCCCCCCCCCCC(=O)NCC(COP(=O)([O-])OCC[N+](C)(C)C)OC (configuration not stated)
inactive: U-251 1.87 µM | HL-60 1.16 µM | UO-31 16.9 µM | SK-MEL-28 16.6 µM | SF-268 5.2 µM | RPMI-8226 1.63 µM | HOP-62 2.87 µM | HT-29 3.45 µM | HOP-92 2.64 µM | OVCAR-5 4.09 µM | IGROV-1 1.91 µM | CCRF-CEM 2.02 µM | Malme-3M 8.59 µM | SW-620 10.9 µM | SN12C 3.85 µM | NCI-H460 1.27 µM

CCOC(=O)c1c(C)n(Cc2ccccc2)c(=O)c2ccccc2c(=O)c2c(=O)ccc(=O)c1=2
inactive: U-251 > 100 µM | T47D 30.6 µM | HL-60 > 100 µM | UO-31 17.9 µM | SK-MEL-28 55.7 µM | SF-268 57.7 µM | RPMI-8226 31.2 µM | HOP-62 > 100 µM | DU-145 > 100 µM | PC-3 39.7 µM | HT-29 42.8 µM | HOP-92 14.9 µM | OVCAR-5 > 100 µM | IGROV-1 22.3 µM | CCRF-CEM 42.1 µM | Malme-3M 19.9 µM | SW-620 33.3 µM | SN12C 41 µM | NCI-H460 > 100 µM
